Experimental data as given in patent publication US11396511B2, “Substituted 9,13b-dihydro-1H-dibenzo[c,f]imidazo[1,5-a]azepin-3-ylbenzamides as anti-inflammatory and analgesic agents” (FRONTBIO CO., LTD., priority 2017, dated 2022).

What was measured:
Raw 264.7 cells [1] = assay: Measurement of NO production in LPS-stimulated Raw 264.7 cells; assay type: cell-based; conditions: for inhibition at 12.5 µM / inhibition at 25 µM / inhibition at 50 µM / inhibition at 100 µM: Mus musculus, RAW264.7, LPS 100 ng/ml, 24 h; for reduction of NO production (in words): together with LPS (100 ng/ml)
Procedure: Raw 264.7 cells were plated in a 96-well cell culture plate (50,000 cells/well). Lipopolysaccharide (LPS) was diluted to 100 ng/ml and the dilution was added to the cell culture media The LPS stimulus was applied for 24 h to induce the activity of the Raw 264.7 cells and supernatants (50 μl each) obtained from the 96-well cell culture plate were plated in a new plate. 50 μl of a sulfanilamide solution was added and the reaction was allowed to proceed for 10 min. 50 μl of a NED solution was added and the reaction was allowed to proceed for 10 min. The amount of NO produced from the cells in the cell culture media was determined by measuring the absorbance at a wavelength of 540 nm.

Raw 264.7 cells [2] = assay: Cell viability measurement (MTS); assay type: cell-based
Procedure: Raw 264.7 cells were plated in a 96-well cell culture plate (50,000 cells/well). The cell culture media were removed from the 96-well cell culture plate. 100 μl of MTS reagent (CellTiter 96 AQueous One Solution Cell Proliferation Assay, Promega) was added to each well and the reaction was allowed to proceed at 37° C. for 20 min. After the reaction was finished, the cell viability were determined by measuring the absorbance at a wavelength of 490 nm.

MAPK = assay: Western blot analysis, MAPK signaling by LPS signals; assay type: cell-based
Procedure: (§1) Cells were harvested, washed with 1×PBS, and suspended by adding a mixture of a protein extraction buffer (150 mM NaCl, 50 mM Tris-HCl pH 7.4, 5 mM EDTA pH 8.0, 1% NP-40) and a protease inhibitor cocktail. Then, the reaction was allowed to proceed in ice for 20 min, sonicated, and centrifuged (13,000 rpm, 30 min). The concentration of proteins in the supernatant was quantified by a BCA protein assay and proteins were separated on the basis of size on an SDS-PAGE gel. Thereafter, proteins were transferred to a PVDF membrane and blocked with skim milk for 1 h. Primary and secondary antibodies were coupled and photosensitized with ECL solution to determine the expression levels of desired proteins.

Akt = assay: Western blot analysis, Akt signaling by LPS signals; assay type: cell-based
Procedure: as §1

[3] = system: anticancer drug-induced peripheral neuropathy models (vincristine); assay: Von-frey test in anticancer drug-induced peripheral neuropathy models; assay type: in vivo, mice; parameters: threshold values (Von-frey test): unit not given here
Description: Vincristine is an anticancer drug that is widely used to treat malignant tumors, including breast cancer, leukemia, lymphoma, and primary brain tumor. However, vincristine was reported to cause neurotoxicity in peripheral nervous fibers and sensory or motor neuropathy after use. The anticancer drug vincristine is known to cause predictable and consistent neurotoxicity in all patients, particularly patients treated with therapeutic doses. When a patient receives a dose of vincristine, paresthesia accompanied by pain is first observed in proportion to the dose. As neuropathy develops, axons are lost together with motor function. Vincristine is also known to induce hypersensitivity of C nerve fiber nociceptors in the peripheral nervous system. Neuropathy was induced by administration of vincristine. First, 0.05 mg/kg of vincristine was administered intraperitoneally. Thereafter, vincristine was administered intraperitoneally twice a week for 6 weeks (0.125 mg/kg each). Neuropathic pain began to appear at week 3 after administration and significant pain was reported at week 4. The degree of neuropathic pain was measured through the […] (Junzo et al., 2005).
After damage to the sciatic nerve, allodynia induced by the mechanical stimulus was measured. Mice were housed in acrylic chambers on a steel mesh floor and acclimated for ≥60 min before testing. Continuous responses were evaluated using Von-frey filaments by the up-down method. The filaments were brought into vertical contact with the affected left soles and the contact was maintained for 5-6 sec. The response was considered to be positive when the mouse rapidly avoided the stimulus, startled or licked its sole. The Von-frey filaments were first used to stimulate the mice.
The analgesic efficacies of the test substances were evaluated in anticancer drug-induced peripheral neuropathy models. To this end, after oral administration of each test substance at concentrations of 10, 20, 40, and 80 mg/kg, threshold values were measured at different periods of time through Von-frey test.

SMILES: CC(=O)Oc1ccccc1C(=O)NC1=NCC2c3ccccc3Cc3ccccc3N12 (stereo not drawn) [E-A, 2-((9,13b-dihydro-1H-dibenzo[c,f]imidazo[1,5-a]azepin-3-yl)carbamoyl)phenyl acetate]
- inhibition at 12.5 µM (Raw 264.7 cells [1]): 0%
- inhibition at 25 µM (Raw 264.7 cells [1]): 17.1%
- inhibition at 50 µM (Raw 264.7 cells [1]): 40.1%
- inhibition at 100 µM (Raw 264.7 cells [1]): 52.4%
- reduction of NO production (in words) (Raw 264.7 cells [1]): concentration-dependent reduction in NO production
- cell toxicity (cell viability, MTS) (Raw 264.7 cells [2]): no cell toxicities were observed
- effect on MAPK signaling by LPS signals (MAPK): found to affect both MAPK signaling and Akt signaling by LPS signals and reduce the activity of proteins
- effect on Akt signaling by LPS signals (Akt): found to affect both MAPK signaling and Akt signaling by LPS signals and reduce the activity of proteins

SMILES: O=C(NC1=NCC2c3ccccc3Cc3ccccc3N12)c1ccccc1O (stereo not drawn) [E-S, N-(9,13b-dihydro-1H-dibenzo[c,f]imidazo[1,5-a]azepin-3-yl)-2-hydroxybenzamide]
- inhibition at 12.5 µM (Raw 264.7 cells [1]): 0%
- inhibition at 25 µM (Raw 264.7 cells [1]): 9.47%
- inhibition at 50 µM (Raw 264.7 cells [1]): 30.8%
- inhibition at 100 µM (Raw 264.7 cells [1]): 40.8%
- reduction of NO production (in words) (Raw 264.7 cells [1]): concentration-dependent reduction in NO production
- cell toxicity (cell viability, MTS) (Raw 264.7 cells [2]): no cell toxicities were observed
- effect on MAPK signaling by LPS signals (MAPK): did not appear to significantly affect MAPK signaling
- phosphorylation of Akt by LPS (Akt; 100 uM): observed to decrease
- concentration of highest analgesic efficacy, Von-frey test ([3]; 1 h after treatment, oral 10, 20, 40, 80 mg/kg tested): 80 mg/kg
- threshold values (Von-frey test) ([3]; oral 10 mg/kg, 1 h): 0.110
- threshold values (Von-frey test) ([3]; oral 10 mg/kg, 2 h): 0.163
- threshold values (Von-frey test) ([3]; oral 10 mg/kg, 3 h): 0.180
- threshold values (Von-frey test) ([3]; oral 10 mg/kg, 4 h): 0.145
- threshold values (Von-frey test) ([3]; oral 10 mg/kg, 5 h): 0.135
- threshold values (Von-frey test) ([3]; oral 10 mg/kg, basal): 0.113
- threshold values (Von-frey test) ([3]; oral 20 mg/kg, 1 h): 0.173
- threshold values (Von-frey test) ([3]; oral 20 mg/kg, 2 h): 0.208
- threshold values (Von-frey test) ([3]; oral 20 mg/kg, 3 h): 0.191
- threshold values (Von-frey test) ([3]; oral 20 mg/kg, 4 h): 0.137
- threshold values (Von-frey test) ([3]; oral 20 mg/kg, 5 h): 0.194
- threshold values (Von-frey test) ([3]; oral 20 mg/kg, basal): 0.157
- threshold values (Von-frey test) ([3]; oral 40 mg/kg, 1 h): 0.324
- threshold values (Von-frey test) ([3]; oral 40 mg/kg, 2 h): 0.306
- threshold values (Von-frey test) ([3]; oral 40 mg/kg, 3 h): 0.270
- threshold values (Von-frey test) ([3]; oral 40 mg/kg, 4 h): 0.239
- threshold values (Von-frey test) ([3]; oral 40 mg/kg, 5 h): 0.194
- threshold values (Von-frey test) ([3]; oral 40 mg/kg, basal): 0.173
- threshold values (Von-frey test) ([3]; oral 80 mg/kg, 1 h): 0.408
- threshold values (Von-frey test) ([3]; oral 80 mg/kg, 2 h): 0.385
- threshold values (Von-frey test) ([3]; oral 80 mg/kg, 3 h): 0.390
- threshold values (Von-frey test) ([3]; oral 80 mg/kg, 4 h): 0.239
- threshold values (Von-frey test) ([3]; oral 80 mg/kg, 5 h): 0.242
- threshold values (Von-frey test) ([3]; oral 80 mg/kg, basal): 0.176
- analgesic efficacy, Von-frey test (in words) ([3]; oral 10, 20, 40, 80 mg/kg): concentration-dependent until 1 h after treatment and was maintained until 3 h after treatment
